SMILES strings stand for the structures. Active and inactive are the calls of the source.

One assay deals with T1, Streptokinase A (Streptococcus pyogenes serotype M1, UniProt P10520).
T1 sequence (P10520 whole entry): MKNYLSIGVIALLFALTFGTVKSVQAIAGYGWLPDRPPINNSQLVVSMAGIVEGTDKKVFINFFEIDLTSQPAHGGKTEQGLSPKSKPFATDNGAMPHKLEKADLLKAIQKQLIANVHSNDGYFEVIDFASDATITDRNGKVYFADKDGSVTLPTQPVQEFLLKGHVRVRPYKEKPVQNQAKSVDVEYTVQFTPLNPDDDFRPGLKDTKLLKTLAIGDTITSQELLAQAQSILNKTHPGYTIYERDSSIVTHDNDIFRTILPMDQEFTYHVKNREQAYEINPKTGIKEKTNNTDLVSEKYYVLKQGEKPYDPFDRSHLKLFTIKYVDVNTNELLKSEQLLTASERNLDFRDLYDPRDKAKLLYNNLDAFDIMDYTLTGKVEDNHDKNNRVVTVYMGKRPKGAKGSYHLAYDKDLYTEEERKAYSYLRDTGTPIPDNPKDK
Briefly: viability-normalized secreted streptokinase activity reduction – plasminogen activation absorbance, OD405, dose response (AID 1914).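 Further: secreted streptokinase activity via plasminogen activation per viability signal from cell pellet.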 It counts as functional, Streptococcus pyogenes M1 GAS.

The test system of another assay is HeLa. In words: viability loss in HeLa cells – cell-based, ATP luminescence, cherry-pick samples, cytotoxicity control, dose response (AID 687004). The format is functional. The note with it: Homo sapiens.
Assay [1] deals with Cryptococcus neoformans. Briefly: Cryptococcus growth inhibition by alamar blue – cell lysis, cherry-picks, replicate tests, mechanism study for C. neoformans antifungal project, dose response (AID 686999). The format is functional, organism-based. Background: The colour change of resazurin is a common sign of viable cells or microbes.
Assay [2] has as its system Cryptococcus neoformans. In words: PubChem AID 686997. It counts as functional, organism-based.
The subject of assay [3] is Streptococcus sp. 'group A'. Briefly: Streptococcus pyogenes SK(-)GAS viability under kanamycin – luminescence, BacTiterGlo, confirmation, counter-screen for streptokinase expression inhibitor project, dose response (AID 1900). The format is functional, organism-based. Background: The purpose of a counterscreen is to sort out artefacts and off-target activity.
The test system of a further assay is Streptococcus. Briefly: GAS UMAA2166 growth inhibition – luminescence, BacTiterGlo, counter-screen for streptokinase expression inhibitor project, dose response (AID 1915).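 Further: potency for reduction of bacterial viability or growth.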 It counts as functional, organism-based.
The nature of assay [4]: viability loss in HEK293T cells – cell-based, ATP luminescence, dry powder, set 3, cytotoxicity control, dose response (AID 743131). The format is functional. The note with it: HEK293.
In assay [5] the target is E3 ubiquitin-protein ligase XIAP (Homo sapiens, UniProt P98170). In words: Counter Screen using XIAP-Bir3 for Chemical Antagonists of Bir1/2 domains of IAP-family anti-apoptotic proteins. [Related pubchem assays (depositor defined):AID1018, AID1449, AID1514, AID1638, AID1749, AID1750, AID488957, AID488963].
For assay [6], the target named is T2, Histone-lysine N-methyltransferase NSD2 (Homo sapiens, UniProt O96028).
T2 sequence (O96028 whole entry): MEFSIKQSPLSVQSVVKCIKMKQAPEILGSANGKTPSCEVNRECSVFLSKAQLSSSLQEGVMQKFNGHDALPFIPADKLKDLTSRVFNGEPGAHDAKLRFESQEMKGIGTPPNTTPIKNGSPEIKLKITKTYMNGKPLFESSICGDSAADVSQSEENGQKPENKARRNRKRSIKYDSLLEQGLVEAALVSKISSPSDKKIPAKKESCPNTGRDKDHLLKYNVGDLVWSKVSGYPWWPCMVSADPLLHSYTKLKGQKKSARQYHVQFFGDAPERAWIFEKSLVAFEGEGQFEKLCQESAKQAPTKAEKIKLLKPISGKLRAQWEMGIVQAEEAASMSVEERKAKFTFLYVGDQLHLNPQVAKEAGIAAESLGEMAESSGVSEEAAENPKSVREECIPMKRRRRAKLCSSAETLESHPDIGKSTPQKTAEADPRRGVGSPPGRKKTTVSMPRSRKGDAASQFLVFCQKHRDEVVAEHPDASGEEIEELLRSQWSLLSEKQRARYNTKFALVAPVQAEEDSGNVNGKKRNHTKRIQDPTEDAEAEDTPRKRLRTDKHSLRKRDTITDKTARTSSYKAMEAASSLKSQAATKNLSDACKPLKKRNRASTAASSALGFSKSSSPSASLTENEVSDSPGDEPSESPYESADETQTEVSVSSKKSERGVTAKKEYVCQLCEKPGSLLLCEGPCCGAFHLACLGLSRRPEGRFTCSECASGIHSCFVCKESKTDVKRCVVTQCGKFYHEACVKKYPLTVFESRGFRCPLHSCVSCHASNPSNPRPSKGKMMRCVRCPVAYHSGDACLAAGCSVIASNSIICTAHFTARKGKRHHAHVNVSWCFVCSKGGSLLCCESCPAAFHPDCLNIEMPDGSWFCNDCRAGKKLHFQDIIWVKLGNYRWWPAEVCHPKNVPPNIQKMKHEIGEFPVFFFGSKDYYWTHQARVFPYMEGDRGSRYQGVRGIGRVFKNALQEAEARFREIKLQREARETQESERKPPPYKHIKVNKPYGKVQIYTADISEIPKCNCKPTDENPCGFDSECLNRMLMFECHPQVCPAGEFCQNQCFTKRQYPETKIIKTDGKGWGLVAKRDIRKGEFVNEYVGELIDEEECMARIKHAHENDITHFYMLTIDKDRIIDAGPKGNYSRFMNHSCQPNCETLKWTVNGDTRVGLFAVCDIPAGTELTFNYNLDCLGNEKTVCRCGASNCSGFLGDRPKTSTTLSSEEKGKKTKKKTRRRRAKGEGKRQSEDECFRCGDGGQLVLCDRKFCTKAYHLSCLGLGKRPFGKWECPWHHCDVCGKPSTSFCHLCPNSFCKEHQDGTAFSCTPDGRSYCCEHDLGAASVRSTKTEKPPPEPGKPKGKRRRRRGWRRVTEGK
The format is biochemical.

For assay [7], the target named is T3, Tyrosyl-DNA phosphodiesterase 2 (Homo sapiens, UniProt O95551).
T3 sequence (O95551 whole entry): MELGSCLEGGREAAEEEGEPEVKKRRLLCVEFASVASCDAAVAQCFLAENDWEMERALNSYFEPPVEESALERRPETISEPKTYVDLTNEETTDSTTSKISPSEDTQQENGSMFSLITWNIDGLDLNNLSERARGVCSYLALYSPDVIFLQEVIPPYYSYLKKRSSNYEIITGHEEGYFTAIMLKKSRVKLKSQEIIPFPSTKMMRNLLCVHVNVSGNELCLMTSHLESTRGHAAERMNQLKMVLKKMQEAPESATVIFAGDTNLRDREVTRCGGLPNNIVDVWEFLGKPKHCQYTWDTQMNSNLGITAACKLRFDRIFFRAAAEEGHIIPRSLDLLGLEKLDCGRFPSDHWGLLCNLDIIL
Briefly: potency against TDP2 phosphodiesterase activity – biochemical, epi absorbance, IC50, dose response (AID 743297).

In assay [8] the target is T4, Fibrinogen beta chain (Homo sapiens, UniProt P02675). Briefly: Fluorescence polarization-based biochemical high throughput dose response assay to identify inhibitors that disrupt the binding of a cyclic peptide (Tn6) to the fibrin proteolytic product D-Dimer and fragment E complex [DD(E )]. In general terms: In fluorescence polarisation assays a small probe gives low polarisation when free and higher when bound to something large.

The target of a further assay is Large T antigen (Simian virus 40, UniProt P03070). It counts as functional, Betapolyomavirus macacae.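 Further: Confirmatory-stage PubChem screen for compounds that inhibit SV40 T antigen.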
Assay [9] has as its target T4, Fibrinogen beta chain. Briefly: Fluorescence polarization-based biochemical high throughput dose response assay to identify inhibitors that disrupt the binding of a cyclic peptide (Tn7) to the fibrin proteolytic product D-Dimer and fragment E complex [DD(E )].
Another assay deals with ELAV-like protein 1 (Homo sapiens, UniProt Q15717). In words: Identify HuR specific inhibitors. The format is functional.
The nature of assay [10]: P. falciparum Dd2 growth inhibitors, dose response, SYBR Green, cherry-picked samples (AID 1159567). It counts as functional, cell-based.
The nature of assay [11]: toxicity to human hepatoma HepG2 cells – cell-based, cherry-picked samples, cytotoxicity control, dose response (AID 1159577). It counts as functional.
Assay [12] is described as follows: anti-trypanosomal activity in BESM host cells – imaging, CA-I/72 strain, bovine embryo skeletal muscle, dry powder, dose response (AID 651885). It counts as functional, cell-based.
Assay [13] can be described thus: T. cruzi growth inhibition in host cells, dose response, cell-based, plate reader, dry powder, set 2 (AID 652275). The format is functional.
Assay [14] in a line: Trypanosoma cruzi replication inhibitors in host cells – cell-based, plate reader, dry powder samples, dose response (AID 651845). It counts as functional.
A short description of assay [15]: BioA aminotransferase inhibition, coupled fluorescent readout – biochemical, coupled fluorescence displacement, 20-point, dry powder, dose response (AID 743357). The format is functional.
The nature of assay [16]: growth inhibition of yeast DHODH-expressing 3D7 parasites – SYBR Green, dry powder samples, dose response (AID 1159570).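 Further: parasite growth measured after 72 hours of compound exposure.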 It counts as functional, cell-based.
The nature of assay [17]: Dd2 malaria parasite growth inhibition potency – SYBR Green, dry powder samples, dose response (AID 1159566).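 Further: potency for growth inhibition with lower SYBR green DNA signal.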 The format is functional, cell-based.
Assay [18] is described as follows: growth inhibition of PfATP4-mutant resistant parasites – NITD609-resistant line, SYBR Green, dry powder, dose response (AID 1159571).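 Further: parasites synchronized at ring stage by sorbitol before testing.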 The format is functional, cell-based.
Assay [19] can be described thus: SNU-C1 cell viability reduction, dose response, CellTiter-Glo luminescence (AID 1117323). The format is functional, cell-based.
Assay [20] can be described thus: cytotoxicity toward HT-29 cells – cell-based, CellTiter-Glo luminescence, IC50, dose response (AID 1117330). The format is functional.
The nature of assay [21]: CellTiter-Glo luminescence survival assay, SW480 colon tumor line, concentration-response curve, half-maximal inhibitory concentration (AID 1117338). The format is functional.
Assay [22] in a line: HCT116 cell viability decrease, GSK3B pretreatment – CellTiter-Glo, IC50, dose response (AID 1117339). The format is functional. The conditions noted are these: HCT-116.
Assay [23] can be described thus: cytotoxicity toward HCT116 cells – cell-based, CellTiter-Glo luminescence, IC50, dose response (AID 1117332). The note with it: HCT-116. It counts as functional.
Assay [24] is described as follows: RKO cell viability reduction, dose response, CellTiter-Glo luminescence (AID 1117322). It counts as functional.
A short description of assay [25]: Reduced DLD-1 viability, concentration-response, CellTiter-Glo luminescence (AID 1117352). The format is functional.
Assay [26] can be described thus: cytotoxicity toward Colo320 cells – cell-based, CellTiter-Glo luminescence, IC50, dose response (AID 1117334). The format is functional. The note with it: COLO 320.
Assay [27] is described as follows: Potency on glucagon-like peptide 1 release, dose-response in NCI-H716 cell line, half maximal inhibitory concentration (AID 1117344). The format is functional, cell-based.
Assay [28] is described as follows: glucagon-like peptide-1 release potency in STC-1, concentration-response, half-maximal inhibitory concentration in the STC-1 line (AID 1117345). It counts as functional, cell-based.
Assay [29] in a line: IC50 of insulin release inhibition, rat insulinoma INS-1E line, 5 mM glucose, cell-based (AID 1117331). It counts as functional.

T4 sequence (P02675 whole entry, the tested form may be a part): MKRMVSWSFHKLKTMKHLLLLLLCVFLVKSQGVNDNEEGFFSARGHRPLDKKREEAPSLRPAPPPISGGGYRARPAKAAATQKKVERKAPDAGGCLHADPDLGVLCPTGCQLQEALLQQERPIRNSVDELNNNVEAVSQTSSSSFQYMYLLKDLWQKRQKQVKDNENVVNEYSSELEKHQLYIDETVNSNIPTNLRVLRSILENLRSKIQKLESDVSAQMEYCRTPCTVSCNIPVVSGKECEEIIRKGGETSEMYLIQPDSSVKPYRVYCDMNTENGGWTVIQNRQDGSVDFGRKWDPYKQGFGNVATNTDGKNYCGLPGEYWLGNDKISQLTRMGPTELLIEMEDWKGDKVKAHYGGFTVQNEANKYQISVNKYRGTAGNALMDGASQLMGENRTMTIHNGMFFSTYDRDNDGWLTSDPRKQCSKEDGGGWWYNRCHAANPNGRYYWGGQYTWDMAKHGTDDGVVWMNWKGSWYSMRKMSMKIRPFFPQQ
Sequence of ELAV-like protein 1 (Q15717 whole entry): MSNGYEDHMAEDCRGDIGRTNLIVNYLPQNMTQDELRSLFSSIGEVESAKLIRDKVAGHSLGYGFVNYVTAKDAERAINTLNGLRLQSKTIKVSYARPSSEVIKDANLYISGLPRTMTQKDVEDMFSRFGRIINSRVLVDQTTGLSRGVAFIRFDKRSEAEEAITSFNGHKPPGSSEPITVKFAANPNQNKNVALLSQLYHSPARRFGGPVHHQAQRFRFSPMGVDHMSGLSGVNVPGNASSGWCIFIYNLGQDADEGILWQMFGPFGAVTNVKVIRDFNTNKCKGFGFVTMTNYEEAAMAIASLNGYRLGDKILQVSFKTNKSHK
Sequence of E3 ubiquitin-protein ligase XIAP (P98170 whole entry): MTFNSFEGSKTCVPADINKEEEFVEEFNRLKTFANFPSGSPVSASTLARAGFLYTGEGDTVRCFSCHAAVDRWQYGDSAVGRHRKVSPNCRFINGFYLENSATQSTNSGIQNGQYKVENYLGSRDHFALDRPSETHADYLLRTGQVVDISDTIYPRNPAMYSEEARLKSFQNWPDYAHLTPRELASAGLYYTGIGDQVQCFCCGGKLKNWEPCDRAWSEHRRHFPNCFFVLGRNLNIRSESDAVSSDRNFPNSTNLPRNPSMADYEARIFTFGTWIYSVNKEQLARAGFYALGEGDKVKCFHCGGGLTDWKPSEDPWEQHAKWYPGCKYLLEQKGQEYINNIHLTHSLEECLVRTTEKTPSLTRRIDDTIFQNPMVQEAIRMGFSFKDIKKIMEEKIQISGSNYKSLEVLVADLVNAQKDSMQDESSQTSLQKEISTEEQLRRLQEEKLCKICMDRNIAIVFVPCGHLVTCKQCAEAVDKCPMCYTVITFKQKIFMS
Sequence of Large T antigen (P03070 whole entry, the tested form may be a part): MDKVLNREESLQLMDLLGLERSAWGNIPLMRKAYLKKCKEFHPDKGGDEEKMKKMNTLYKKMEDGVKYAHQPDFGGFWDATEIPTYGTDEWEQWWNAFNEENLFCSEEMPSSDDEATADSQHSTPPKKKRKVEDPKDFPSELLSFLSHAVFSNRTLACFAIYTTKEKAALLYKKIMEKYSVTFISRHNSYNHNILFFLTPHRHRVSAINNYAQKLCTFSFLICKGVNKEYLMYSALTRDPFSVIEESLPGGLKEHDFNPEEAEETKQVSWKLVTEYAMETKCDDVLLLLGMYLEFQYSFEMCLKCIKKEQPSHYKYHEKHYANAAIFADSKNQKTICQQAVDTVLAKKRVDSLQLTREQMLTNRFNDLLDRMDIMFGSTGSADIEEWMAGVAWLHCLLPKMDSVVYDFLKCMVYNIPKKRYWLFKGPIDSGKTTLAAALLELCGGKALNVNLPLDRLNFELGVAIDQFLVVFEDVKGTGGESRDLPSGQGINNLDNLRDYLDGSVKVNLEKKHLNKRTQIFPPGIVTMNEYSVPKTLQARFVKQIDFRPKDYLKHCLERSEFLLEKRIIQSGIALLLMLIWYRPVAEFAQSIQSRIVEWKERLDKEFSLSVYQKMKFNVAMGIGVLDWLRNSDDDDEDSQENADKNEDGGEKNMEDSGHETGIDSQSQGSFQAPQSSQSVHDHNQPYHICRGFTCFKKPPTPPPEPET

What is called EC50 is the concentration that produces a half-maximal response. One may read the AC50 as the concentration giving half of the maximal activity seen. Regarding `Cc1ccc(OCCn2c(S)nc3ccccc32)c(C(C)C)c1`, the EC50 at Streptokinase A was 15.2 µM (active); in [3] it was 2.73 µM (active); in the assay on Streptococcus, 17.2 µM (active). Also, the AC50 is 37.9 µM (active) in the assay with HeLa, 11.2 µM (active) in the assay with Cryptococcus neoformans [1], 20.7 µM (active) in the assay on Cryptococcus neoformans [2] and 10.3 µM (active) in [4].

One may read the IC50 as the concentration that inhibits the measured activity by half. As to `O=C(O)CCCNc1cc(N2CCN(C(=O)c3ccco3)CC2)c2noc3c2c1C(=O)c1ccccc1-3`, the EC50 was > 150 µM (not active) at Streptokinase A, 5.52 µM (active) in assay [3] and 31.8 µM (active) with Streptococcus. The IC50 in assay [5] was > 20 µM (inactive); in [7] it was > 128 µM (inactive); at Fibrinogen beta chain [8], 4.96 µM (active); at Large T antigen, > 100 µM (active); on Fibrinogen beta chain [9], > 83.3 µM (inactive). Further, the AC50 in [6] is 14.8 µM (active).

In the case of `O=C(O)C1=NN(c2cc(Cl)c(S(=O)(=O)O)cc2Cl)C(=O)C1`, the IC50 at ELAV-like protein 1 was 16.7 µM (inactive).

As to `Cc1cccc(S(=O)(=O)N2CCCCN3[C@@H](CO)[C@@H](c4ccc(C#CC(C)C)cc4)[C@@H]3C2)c1`, the half-maximal activity concentration (AC50) in assay [10] was 1.18 µM (active); in assay [11] it was 15.1 µM (active).

Take `C[C@@H]1CN([C@@H](C)CO)C(=O)c2cccc(NC(=O)c3ccncc3)c2O[C@H]1CN(C)Cc1ccc2c(c1)OCO2`: the IC50 in [12] is 0.0565 µM (active). Further, the half-maximal activity concentration (AC50) in assay [13] was 0.017 µM (active); in assay [14], 0.0571 µM (active).

Regarding `COC(=O)c1ccc(N2CCN(C(=O)c3ccc4c(c3)OCO4)CC2)cc1`, the AC50 in [15] is 12.4 µM (active).

`CCC(=O)N1CCC2(CC1)CN(S(=O)(=O)c1ccccc1)[C@@H](CO)c1[nH]c3cc(OC)ccc3c12`: the AC50 was 1.31 µM (active) in assay [16], 1.47 µM (active) in assay [17], 2.04 µM (active) in assay [10] and 0.961 µM (active) in [18].

With `CN1CCC(=C2c3ccccc3C=Cc3ccccc32)CC1` [CYPROHEPTADINE], the IC50 in assay [19] was 10.8 µM (inactive); in assay [20], > 20 µM (inactive); in assay [21] it was 5.92 µM (inactive); in assay [22], > 20 µM (inactive); in assay [23], > 20 µM (inactive); in [24] it was 11.3 µM (inactive). In addition, the IC50 in assay [25] and in assay [26] was > 20 µM (inactive) each time.

Turning to `COc1ccc(/C=N/NC(=O)c2ccncc2)cc1OC` [VERAZIDE], the IC50 is 20 µM (inactive) in assay [27], > 40 µM (inactive) in assay [28] and > 33.3 µM (inactive) in assay [29].

The values above are taken from ChEMBL document CHEMBL1201862, “PubChem BioAssay data set” (2004).
